Data taken from PubChem BioAssay AID179 (DTP/NCI, 2004).
Where “and” joins values, the source holds several entries; their conditions need not be identical. Equal values may be shown once. Calls of active or inactive are those of the source.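 Rule for the calls: active = compounds giving half or more protection of infected cells from virus-caused growth loss, again on retest; inactive = the rest.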 Where a SMILES comes first, the peptide text is derived from it.

Test system: CEM cells HIV-1 protection, formazan growth assay
Experiment: NCI AIDS Antiviral Assay
Conditions: for IC50: measured here: growth of uninfected CEM cells
Outline: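 Category rules: moderately active means at least 50% protection on retest, and confirmed active means 100% protection reproducibly. The underlying data came from a formazan growth assay in HIV-1-infected CEM cells.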

## CN1CN(c2ccccc2)C2(CCN(CCCC3(c4cccs4)OCCO3)CC2)C1=O
  EC50: > 200 µM
  IC50: 107 µM

## C=C(OC1C(C)=C2C(C1OC(=O)CCCCCCC)C(C)(OC(C)=O)CC(OC(=O)CCC)C1(O)C2OC(=O)C1(C)O)/C(C)=C/C (centres undefined)
  EC50: > 2 µM
  IC50: 0.00282 µM

## CC(C)N(C)C(=O)C12C3C4C1C1C2C3C41C#N (centres undefined)
  outcome: inactive

## CC(C)OP(=O)(OC(C)C)/C(=N/Nc1ccc([N+](=O)[O-])cc1)NNC(=O)c1ccccc1
  EC50: > 40.7 µM
  IC50: 17 µM

## COCN1C(=O)[C@@H]2C[C@@H](O)CN2C(=O)c2ccccc21
  EC50: > 200 µM
  IC50: > 200 µM

## C=CCCC(O)c1cc(C)c(O)c(C)c1 (centres undefined)
  EC50: > 457 µM
  IC50: 229 µM

## OC1c2ccccc2C(O)C2OC12 (centres undefined)
  EC50: > 200 µM
  IC50: 115 µM

## COC(=O)c1ccc(NCC2=C(Br)C(=O)C=CC2=O)cc1Cl
  outcome: inactive

## CCOC(=O)c1cc2cc(C)cc(C(=O)c3ccc([N+](=O)[O-])cc3)c2[nH]1
  EC50: > 200 µM
  IC50: > 200 µM

## NCC1(N2CCOCC2)C2CCCC21CO (centres undefined)
  EC50: > 1100 µM
  IC50: > 1100 µM

## CCOP(=O)(CCCC(O)CNc1nc(N)nc(Cl)c1N=Nc1ccc(Cl)cc1)OCC (centres undefined)
  EC50: > 200 µM
  IC50: 5.75 µM

## C1CCc2nnnn2CC1
  EC50: > 200 µM and 120 µM
  IC50: > 200 µM and 724 µM

## Cc1c(C)c2c(c(N)c1C#N)C(=O)N(N)C2=O
  EC50: > 200 µM
  IC50: 132 µM

## C/C=N\n1c(C)c(C#N)c(C#N)c1N
  EC50: > 200 µM
  IC50: > 200 µM

## COc1ccc(C(=O)/C=C/c2ccc(OCC#N)cc2)cc1
  EC50: > 200 µM
  IC50: 15.8 µM

## CCCCCCCCCC(=O)CC(=O)c1ccc(O)cc1O
  EC50: > 117 µM
  IC50: 69.2 µM

## CCCCCN(CCCCC)CCC(=O)c1ccc2cc(Br)c3ccccc3c2c1
  EC50: > 200 µM
  IC50: 12.6 µM

## COC(=O)CCC(=O)Nc1cccc(C(F)(F)F)c1
  EC50: > 129 µM
  IC50: > 129 µM

## COc1ccc(S(=O)(=O)c2ccccc2[N+](=O)[O-])cc1
  outcome: active

## O=c1c2cc([N+](=O)[O-])ccc2[nH]n1Cc1ccccn1
  EC50: > 200 µM
  IC50: > 200 µM

## O=c1c2cc3c(cc2c2cccc4ccn1c42)OCO3
  outcome: inactive

## C/C(=N\O)[C@H]1CC[C@H]2[C@@H]3CC[C@@H]4C/C(=N/O)CC[C@]4(C)[C@H]3[C@@](C)(O)C[C@]12C
  EC50: > 200 µM
  IC50: 26.9 µM

## O=C(/C=C/c1ccsc1)c1ccco1
  EC50: > 200 µM
  IC50: 11 µM

## Cc1cccc2c1c(=O)c1c(O)cc3c(c1n2C)C=CC(C)(C)O3
  EC50: 32.4 µM
  IC50: > 200 µM

## O=c1ccn(CC2(CO)CC(Cc3ccccc3)C2)c(=O)[nH]1 (centres undefined)
  EC50: > 200 µM
  IC50: > 200 µM

## CCc1c(O)cc(=O)oc1-c1ccc(OC)c(OC)c1
  EC50: > 200 µM
  IC50: > 200 µM

## Cc1ccc(OCCn2cc(Nc3ccccc3)c(=O)[nH]c2=O)cc1
  EC50: > 200 µM
  IC50: > 200 µM

## Cc1cc2c(c3oc(C4(C)OC4C4OC4C)cc(=O)c13)C(=O)c1c(O)c(C3CC(C)(N(C)C)C(O)C(C)O3)cc(C3CC(N(C)C)C(O)C(C)O3)c1C2=O (centres undefined)
  EC50: > 0.002 µM
  IC50: 9.55e-05 µM

## C/C(CC(O)(C(F)(F)F)C(F)(F)F)=N\O
  EC50: > 200 µM
  IC50: > 200 µM

## CC(=O)NC(C(=O)NC(C)C(=O)N1CCCC1C(=O)O)C(C)C (stereo not drawn) (Ac-Val-Ala-Pro-OH; configuration not given here)
  EC50: > 200 µM
  IC50: > 200 µM

## Cc1c(Cl)ccc2c1NC(=O)C2(O)CC(=O)c1ccc2ccccc2c1 (centres undefined)
  EC50: > 19.5 µM
  IC50: > 19.5 µM

## OC(c1cc2ccccc2[nH]1)C(O)(c1cc2ccccc2[nH]1)c1cc2ccccc2[nH]1 (centres undefined)
  EC50: > 12.9 µM
  IC50: 11 µM

## Cc1ccccc1NC(=O)C(=O)CC(=O)c1sc(-n2nc(-c3ccccc3)cc2-c2ccccc2)nc1C
  EC50: > 479 µM
  IC50: > 479 µM

## O=[N+]([O-])c1cc(C(F)(F)F)ccc1SSc1ccc(C(F)(F)F)cc1[N+](=O)[O-]
  EC50: > 200 µM
  IC50: 24.5 µM and 13.2 µM

## O=C1OC(=O)C2C1C=C(c1ccccc1)C1C3C=CC(C4C(=O)OC(=O)C34)C21 (centres undefined)
  EC50: > 200 µM
  IC50: > 200 µM

## NS(=O)(=O)c1c(O)c2ccccc2oc1=O
  outcome: inactive

## Oc1c(OCc2nnc(CCCCCCCCc3nnc(COc4ccc5ccccc5c4O)o3)o2)ccc2ccccc12
  EC50: > 200 µM
  IC50: > 200 µM

## CC/C(=C(\C#N)c1ccc(F)cc1)c1ccc(OCCN(CC)CC)cc1
  EC50: > 200 µM
  IC50: 2.51 µM

## COc1ccc(NC(C)=O)cc1C1CCC(=O)N1 (centres undefined)
  outcome: inactive

## CCOc1ccc(N=NC2C(=O)N(C(=O)CC(=O)Nc3ccc(Cl)cc3)N=C2C)cc1 (centres undefined)
  EC50: > 200 µM
  IC50: > 200 µM

## Cn1c2ccccc2c2[nH]c3ccccc3c(=O)c21
  EC50: > 200 µM
  IC50: 13.8 µM

## O=CCC(O)C(O)C(O)CO (centres undefined)
  EC50: > 759 µM
  IC50: > 759 µM

## Cc1ccc(SSc2ccc(C(C)(C)C)cc2)cc1
  EC50: > 200 µM
  IC50: 4.27 µM

## COc1ccc(N2C(=O)/C(=C/c3ccc(N(CCC#N)CCC#N)cc3C)N=C2c2cc([N+](=O)[O-])ccc2Cl)cc1
  EC50: > 12.6 µM
  IC50: 3.02 µM

## COc1ccc(C2=Nn3c(nc4sc(-c5ccccc5)cc4c3=O)SC2)cc1
  EC50: > 200 µM
  IC50: > 200 µM

## O=[N+]([O-])c1ccc(Nc2ccc(Cl)cc2)c2nonc12
  EC50: > 43.7 µM
  IC50: 15.1 µM

## COc1ccc(CNc2nc3ccc(C(F)(F)F)cc3nc2-c2ccccc2)cc1OC
  EC50: > 12 µM
  IC50: > 12 µM

## N#CC1(c2nc3ccccc3o2)C(=O)C(=O)N(c2ccc(Cl)c(Cl)c2)C(=O)C1=O
  EC50: > 302 µM
  IC50: 282 µM

## CCN(CC)C(=S)SCn1nc(Cl)c2ccc([N+](=O)[O-])cc21
  EC50: > 69.2 µM
  IC50: 40.7 µM

## CCc1c2cc(OC)c(OC)cc2cc2c3cc(OC)c(OC)cc3cc[n+]12 (tested in a mixture with another compound)
  EC50: > 234 µM
  IC50: 33.9 µM

## COC12CCC(C(C(=O)c3ccccc3)=C1C(=O)c1ccccc1)C(O)C2 (centres undefined)
  EC50: > 501 µM
  IC50: > 501 µM

## CCCC1N=C(c2ccccc2)C2C(c3ccc([N+](=O)[O-])cc3)N12 (centres undefined)
  EC50: > 200 µM
  IC50: 148 µM

## COc1ccccc1NS(=O)(=O)c1ccc2ncn(NS(=O)(=O)c3ccc(Cl)cc3)c(=O)c2c1
  outcome: inactive

## c1cc2ccc1C1NCCCN1CCN1CCCNC1c1ccc(cc1)C1NCCCN1CCN1CCCNC21 (centres undefined)
  EC50: > 13.2 µM
  IC50: 9.33 µM

## CN(C)CC/C(=N\Nc1ccc(Cl)c(Cl)c1)c1ccccc1
  outcome: inactive

## CC(=O)OC1C2C(=C(C)C(=O)O[C@@H]2c2ccoc2)[C@@]2(C)C3CCC(C)(C(=O)O3)C12 (some centres undefined)
  EC50: 162 µM
  IC50: > 200 µM

## CC1CCC2(CC1)CC(=O)N(N1CCCCC1)C2=O (centres undefined)
  EC50: > 200 µM
  IC50: > 200 µM

## N#CC1=C2SCCN2C(=O)C(C#N)C12CCCCC2 (centres undefined)
  EC50: > 200 µM
  IC50: > 200 µM

## N#C/C(=C\c1ccccc1)C(=O)c1ccccc1
  EC50: > 95.5 µM
  IC50: > 95.5 µM

## C=CC[C@]12CC(OC)C(OC)CC1(OC)O[C@@H](c1cc(OC)c(OC)c(OC)c1)[C@H]2C (some centres undefined)
  EC50: > 200 µM
  IC50: 155 µM

## NC(=O)c1ccccc1NC(=O)C(=O)Nc1n[nH]c(N)n1
  EC50: > 871 µM
  IC50: > 871 µM

## CCOC(=O)/C(=C\c1cccc(Cl)c1)C(C)=O
  EC50: > 141 µM
  IC50: 57.5 µM

## NC(=O)c1ccc(NN=O)nc1
  EC50: > 200 µM
  IC50: > 200 µM

## CCOC(=O)c1c(SCCN2CCCCC2)n(-c2ccccc2)c(=S)n(-c2ccccc2)c1=O
  EC50: > 20 µM
  IC50: > 20 µM

## CN(C)P1(=S)NCC(C(C)(C)C)CO1 (centres undefined)
  EC50: > 105 µM
  IC50: > 105 µM

## Cc1nnc(NC(=O)c2cc(=O)c3ccccc3o2)s1
  EC50: > 91.2 µM
  IC50: > 91.2 µM

## CCOC(=O)C1=CCC2c3[nH]c4ccccc4c3CCN2C1=O (centres undefined)
  EC50: > 16.2 µM
  IC50: 9.12 µM

## O=C(/C(=N/N(C(=O)c1ccccc1)c1ccccc1)c1ccccc1)c1ccccc1
  outcome: inactive

## Fc1cccc(C2SCc3nc4ccccc4n32)c1 (centres undefined)
  EC50: > 209 µM
  IC50: 20.9 µM

## O=C(Nc1nc2ccsc2s1)c1ccccc1
  EC50: > 501 µM
  IC50: > 501 µM

## COc1cc(N(C)C)ccc1/C=C\c1ccnc2ccccc12
  EC50: > 200 µM
  IC50: 13.5 µM

## C=C1SC(=Nc2cccc(OC)c2)N(c2nc(Cl)nc(Cl)n2)C1(C)C
  EC50: > 112 µM
  IC50: 20 µM

## CCOC(=O)CNCc1cc(=O)[nH]c2cc(Cl)ccc12
  EC50: > 200 µM
  IC50: 40.7 µM

## COc1c(OC(C)=O)c(OC(C)=O)cc2c1-c1ccc(OC)c(=O)cc1C(NC(C)=O)CC2 (centres undefined)
  EC50: > 0.2 µM
  IC50: 0.0115 µM

## CC[n+]1c(/C=C/c2ccc(N(CCCl)CCCl)cc2)ccc2cc(NC(=O)/C=C/c3ccccc3)ccc21
  outcome: inactive

## CN(C)CCC1(C)OCCC2=C1Cc1ccccc12 (centres undefined)
  EC50: > 200 µM
  IC50: 135 µM

## Cc1ccccc1NC(=O)C(=O)C(C1OC(=O)c2ccccc21)[N+](=O)[O-] (centres undefined)
  EC50: > 708 µM
  IC50: 339 µM

## CC1(C)C(=O)C2(C(=O)O)CCC1C2 (centres undefined)
  EC50: > 200 µM
  IC50: > 200 µM

## CC(C)(C)CS(=O)(=O)O.[Ag]
  EC50: > 200 µM
  IC50: 10.5 µM

## CC(=O)CCC(NC(C)=O)(C(=O)O)C(=O)O
  EC50: > 200 µM
  IC50: > 200 µM

## COc1c(C)c(C/C=C(\C)CC/C=C(\C)CC/C=C(\C)CC/C=C(\C)CCC=C(C)C)c(OC)c(OC)c1OC
  EC50: > 200 µM
  IC50: 31.6 µM

## C[C@H](C/C=C/C(C)(C)O)[C@H]1CC[C@@]2(C)[C@@H]3CC[C@H]4C(C)(C)[C@@H](O)CC[C@@]45C[C@@]35CC[C@]12C
  EC50: > 200 µM
  IC50: 4.68 µM

## CC1(C)S[C@@H]2[C@H](NC(=O)C3(N)CCCCC3)C(=O)N2[C@H]1C(=O)O
  EC50: > 200 µM
  IC50: > 200 µM

## CCC[CH2][Sn]([CH2]CCC)([O]C(=O)c1c(F)cccc1F)[O]C(=O)c1c(F)cccc1F
  EC50: > 9.55 µM
  IC50: 1.91 µM

## Ic1ccccc1SSc1ccccc1I
  EC50: > 200 µM
  IC50: 8.71 µM

## COC(=O)/C(C#N)=C\NC(=S)C(N)=S
  EC50: > 200 µM
  IC50: 11.2 µM

## CC(=O)Nc1cccc(S(=O)(=O)c2cccc(NC(=O)c3ccccc3SC(=O)CCCC[n+]3ccccc3)c2)c1
  EC50: 17.8 µM
  IC50: > 200 µM
